Source: ChEMBL document CHEMBL3390836, “Mannich- and LedererManasse-based analogues of the natural product S-(+)-curcuphenol as cancer proliferation and migration inhibitors” (Medchemcomm, 2012)

Columns and labels:
Format in all cases: functional
TK-10 = experiment: Cytotoxicity against human TK10 cells after 48 hrs by SRB assay; conditions: TK-10, 48 h
Malme-3M [1] = experiment: Cytotoxicity against human MALME-3M cells assessed as cell growth at 10^-4 M after 48 hrs by SRB assay relative to control; conditions: read-out: Activity
[2] = Cytotoxicity against human UO31 cells assessed as cell growth at 10^-8 M after 48 hrs by SRB assay relative to control; conditions: UO-31, 48 h, read-out: Activity
[3] = Cytotoxicity against human NCI-ADR-RES cells assessed as cell growth at 10^-4 M after 48 hrs by SRB assay relative to control; conditions: read-out: Activity
[4] = Cytotoxicity against human OVCAR5 cells assessed as cell growth at 10^-7 M after 48 hrs by SRB assay relative to control; conditions: OVCAR-5, 48 h, read-out: Activity
MDA-MB-231 = experiment: Cytotoxicity against human MDA-MB-231 cells assessed as cell growth at 10^-4 M after 48 hrs by SRB assay relative to control; conditions: MDA-MB-231, 48 h, read-out: Activity
MOLT-4 = experiment: Cytotoxicity against human MOLT4 cells assessed as cell growth at 10^-6 M after 48 hrs by SRB assay relative to control; conditions: MOLT-4, 48 h, read-out: Activity
SF-539 = experiment: Cytotoxicity against human SF539 cells assessed as cell growth at 10^-7 M after 48 hrs by SRB assay relative to control; conditions: SF-539, 48 h, read-out: Activity
COLO 205 = experiment: Cytotoxicity against human COLO205 cells assessed as cell growth at 10^-8 M after 48 hrs by SRB assay relative to control; conditions: COLO 205, 48 h, read-out: Activity
[5] = Cytotoxicity against human OVCAR8 cells assessed as cell growth at 10^-8 M after 48 hrs by SRB assay relative to control; conditions: OVCAR-8, 48 h, read-out: Activity
SK-MEL-28 [6] = experiment: Cytotoxicity against human SK-MEL-28 cells assessed as cell growth at 10^-7 M after 48 hrs by SRB assay relative to control; conditions: SK-MEL-28, 48 h, read-out: Activity
U-251 [7] = experiment: Cytotoxicity against human U251 cells assessed as cell growth at 10^-6 M after 48 hrs by SRB assay relative to control; conditions: U-251, 48 h, read-out: Activity
Malme-3M [8] = experiment: Cytotoxicity against human MALME-3M cells assessed as cell growth at 10^-8 M after 48 hrs by SRB assay relative to control; conditions: read-out: Activity
[9] = Cytotoxicity against human OVCAR5 cells after 48 hrs by SRB assay; conditions: OVCAR-5, 48 h; for CC50: read-out: LC50 (the source's name)
A549 [10] = experiment: Cytotoxicity against human A549 cells assessed as cell growth at 10^-8 M after 48 hrs by SRB assay relative to control; conditions: A549, 48 h, read-out: Activity
T47D [11] = experiment: Cytotoxicity against human T47D cells after 48 hrs by SRB assay
SW-620 [12] = experiment: Cytotoxicity against human SW620 cells after 48 hrs by SRB assay; conditions: SW-620, 48 h; for CC50: read-out: LC50 (the source's name)
IGROV-1 = experiment: Cytotoxicity against human IGROV1 cells assessed as cell growth at 10^-7 M after 48 hrs by SRB assay relative to control; conditions: IGROV-1, 48 h, read-out: Activity
SK-MEL-28 [13] = experiment: Cytotoxicity against human SK-MEL-28 cells assessed as cell growth at 10^-4 M after 48 hrs by SRB assay relative to control; conditions: SK-MEL-28, 48 h, read-out: Activity
SF-268 = experiment: Cytotoxicity against human SF268 cells assessed as cell growth at 10^-7 M after 48 hrs by SRB assay relative to control; conditions: SF-268, 48 h, read-out: Activity
A549 [14] = experiment: Cytotoxicity against human A549 cells assessed as cell growth at 10^-7 M after 48 hrs by SRB assay relative to control; conditions: A549, 48 h, read-out: Activity
NCI-H460 = experiment: Cytotoxicity against human NCI-H460 cells after 48 hrs by SRB assay; conditions: NCI-H460, 48 h; for CC50: read-out: LC50 (the source's name)
MCF7 = experiment: Cytotoxicity against human MCF7 cells assessed as cell growth at 10^-7 M after 48 hrs by SRB assay relative to control; conditions: MCF7, 48 h, read-out: Activity
HL-60(TB) = experiment: Cytotoxicity against human HL-60(TB) cells after 48 hrs by SRB assay; conditions: HL-60, 48 h; for CC50: read-out: LC50 (the source's name)
SK-MEL-5 = experiment: Cytotoxicity against human SK-MEL-5 cells assessed as cell growth at 10^-4 M after 48 hrs by SRB assay relative to control; conditions: SK-MEL-5, 48 h, read-out: Activity
SNB-75 = experiment: Cytotoxicity against human SNB75 cells assessed as cell growth at 10^-4 M after 48 hrs by SRB assay relative to control; conditions: SNB-75, 48 h, read-out: Activity
U-251 [15] = experiment: Cytotoxicity against human U251 cells assessed as cell growth at 10^-4 M after 48 hrs by SRB assay relative to control; conditions: U-251, 48 h, read-out: Activity
[16] = Cytotoxicity against human SKOV3 cells assessed as cell growth at 10^-8 M after 48 hrs by SRB assay relative to control; conditions: SK-OV-3, 48 h, read-out: Activity
[17] = Cytotoxicity against human OVCAR8 cells assessed as cell growth at 10^-4 M after 48 hrs by SRB assay relative to control; conditions: OVCAR-8, 48 h, read-out: Activity
SF-295 = experiment: Cytotoxicity against human SF295 cells assessed as cell growth at 10^-6 M after 48 hrs by SRB assay relative to control; conditions: SF-295, 48 h, read-out: Activity
SK-MEL-2 = experiment: Cytotoxicity against human SK-MEL-2 cells assessed as cell growth at 10^-8 M after 48 hrs by SRB assay relative to control; conditions: SK-MEL-2, 48 h, read-out: Activity
MDA-MB-435 = experiment: Cytotoxicity against human MDA-MB-435 cells assessed as cell growth at 10^-8 M after 48 hrs by SRB assay relative to control; conditions: MDA-MB-435, 48 h, read-out: Activity
T47D [18] = experiment: Cytotoxicity against human T47D cells assessed as cell growth at 10^-6 M after 48 hrs by SRB assay relative to control; conditions: read-out: Activity
MDA-MB-468 = experiment: Cytotoxicity against human MDA-MB-468 cells assessed as cell growth at 10^-6 M after 48 hrs by SRB assay relative to control; conditions: MDA-MB-468, 48 h, read-out: Activity
SW-620 [19] = experiment: Cytotoxicity against human SW620 cells assessed as cell growth at 10^-4 M after 48 hrs by SRB assay relative to control; conditions: SW-620, 48 h, read-out: Activity

CC(C)=CCC[C@H](C)c1ccc(C)c(CNCC2CCNCC2)c1O
GI50 (TK-10): 0.0551 µM
LC50 (TK-10): > 25 µM
TGI (TK-10): 17.8 µM
growth at 100 µM (Malme-3M [1]): -62%
growth at 0.01 µM [2]: 88%
growth at 100 µM [3]: 46%
growth at 0.1 µM [4]: 96%
growth at 100 µM (MDA-MB-231): -65%
growth at 1 µM (MOLT-4): 99%
growth at 0.1 µM (SF-539): 91%
growth at 0.01 µM (COLO 205): 106%
growth at 0.01 µM [5]: 95%
growth at 0.1 µM (SK-MEL-28 [6]): 100%
growth at 1 µM (U-251 [7]): 94%
growth at 0.01 µM (Malme-3M [8]): 97%
GI50 [9]: 9.56 µM
TGI [9]: > 25 µM
CC50 [9]: > 25 µM
growth at 0.01 µM (A549 [10]): 101%
GI50 (T47D [11]): 4.33 µM
LC50 (concentration killing 50% of cells) (T47D [11]): 18.1 µM
TGI (T47D [11]): 8.86 µM
GI50 (SW-620 [12]): 4.11 µM
TGI (SW-620 [12]): 8.14 µM
CC50 (SW-620 [12]): 16.1 µM
growth at 0.1 µM (IGROV-1): 97%
growth at 100 µM (SK-MEL-28 [13]): -91%
growth at 0.1 µM (SF-268): 97%
growth at 0.1 µM (A549 [14]): 98%
GI50 (NCI-H460): 4.45 µM
TGI (NCI-H460): 9.23 µM
CC50 (NCI-H460): 19.1 µM
growth at 0.1 µM (MCF7): 97%
GI50 (HL-60(TB)): 5.02 µM
TGI (HL-60(TB)): 10.2 µM
CC50 (HL-60(TB)): 20.7 µM
growth at 100 µM (SK-MEL-5): 100%
growth at 100 µM (SNB-75): -32%
growth at 100 µM (U-251 [15]): -81%
growth at 0.01 µM [16]: 99%
growth at 100 µM [17]: -60%
growth at 1 µM (SF-295): 86%
growth at 0.01 µM (SK-MEL-2): 102%
growth at 0.01 µM (MDA-MB-435): 100%
growth at 1 µM (T47D [18]): 84%
growth at 1 µM (MDA-MB-468): 90%
growth at 100 µM (SW-620 [19]): -82%

COc1ccc(CCN2COc3c([C@@H](C)CCC=C(C)C)ccc(C)c3C2)cc1OC
GI50 (TK-10): 2.19 µM
LC50 (TK-10): 24.6 µM
TGI (TK-10): 5.95 µM
growth at 100 µM (Malme-3M [1]): -88%
growth at 0.01 µM [2]: 86%
growth at 100 µM [3]: -90%
growth at 0.1 µM [4]: 98%
growth at 100 µM (MDA-MB-231): -91%
growth at 1 µM (MOLT-4): 85%
growth at 0.1 µM (SF-539): 88%
growth at 0.01 µM (COLO 205): 105%
growth at 0.01 µM [5]: 86%
growth at 0.1 µM (SK-MEL-28 [6]): 84%
growth at 1 µM (U-251 [7]): 88%
growth at 0.01 µM (Malme-3M [8]): 91%
GI50 [9]: 8.53 µM
TGI [9]: 20.8 µM
CC50 [9]: 45.6 µM
growth at 0.01 µM (A549 [10]): 87%
GI50 (T47D [11]): 1.78 µM
LC50 (concentration killing 50% of cells) (T47D [11]): 8.12 µM
TGI (T47D [11]): 3.8 µM
GI50 (SW-620 [12]): 1.91 µM
TGI (SW-620 [12]): 4.08 µM
CC50 (SW-620 [12]): 8.72 µM
growth at 0.1 µM (IGROV-1): 97%
growth at 100 µM (SK-MEL-28 [13]): -95%
growth at 0.1 µM (SF-268): 79%
growth at 0.1 µM (A549 [14]): 96%
GI50 (NCI-H460): 2.06 µM
TGI (NCI-H460): 4.3 µM
CC50 (NCI-H460): 8.95 µM
growth at 0.1 µM (MCF7): 90%
GI50 (HL-60(TB)): 4.11 µM
TGI (HL-60(TB)): 60.9 µM
CC50 (HL-60(TB)): > 100 µM
growth at 100 µM (SK-MEL-5): -100%
growth at 100 µM (SNB-75): -50%
growth at 100 µM (U-251 [15]): -100%
growth at 0.01 µM [16]: 97%
growth at 100 µM [17]: -54%
growth at 1 µM (SF-295): 80%
growth at 0.01 µM (SK-MEL-2): 93%
growth at 0.01 µM (MDA-MB-435): 97%
growth at 1 µM (T47D [18]): 88%
growth at 1 µM (MDA-MB-468): 62%
growth at 100 µM (SW-620 [19]): -86%

CC(C)=CCC[C@H](C)c1ccc(C)c2c1OCN(CC1CCNCC1)C2
GI50 (TK-10): 14.4 µM
LC50 (TK-10): 59.5 µM
TGI (TK-10): 29.3 µM
growth at 100 µM (Malme-3M [1]): -76%
growth at 0.01 µM [2]: 95%
growth at 100 µM [3]: -73%
growth at 0.1 µM [4]: 87%
growth at 100 µM (MDA-MB-231): -77%
growth at 1 µM (MOLT-4): 100%
growth at 0.1 µM (SF-539): 94%
growth at 0.01 µM (COLO 205): 109%
growth at 0.01 µM [5]: 106%
growth at 0.1 µM (SK-MEL-28 [6]): 101%
growth at 1 µM (U-251 [7]): 100%
growth at 0.01 µM (Malme-3M [8]): 92%
GI50 [9]: 14.3 µM
TGI [9]: 28.8 µM
CC50 [9]: 57.7 µM
growth at 0.01 µM (A549 [10]): 95%
GI50 (T47D [11]): 15.2 µM
LC50 (concentration killing 50% of cells) (T47D [11]): 72.8 µM
TGI (T47D [11]): 33.2 µM
GI50 (SW-620 [12]): 9.87 µM
TGI (SW-620 [12]): 23.1 µM
CC50 (SW-620 [12]): 53.5 µM
growth at 0.1 µM (IGROV-1): 107%
growth at 100 µM (SK-MEL-28 [13]): -98%
growth at 0.1 µM (SF-268): 99%
growth at 0.1 µM (A549 [14]): 90%
GI50 (NCI-H460): 5.36 µM
TGI (NCI-H460): 16.6 µM
CC50 (NCI-H460): 43.1 µM
growth at 0.1 µM (MCF7): 97%
GI50 (HL-60(TB)): 3.9 µM
TGI (HL-60(TB)): 18.9 µM
CC50 (HL-60(TB)): 59.3 µM
growth at 100 µM (SK-MEL-5): -85%
growth at 100 µM (SNB-75): -99%
growth at 100 µM (U-251 [15]): -87%
growth at 0.01 µM [16]: 101%
growth at 100 µM [17]: -85%
growth at 1 µM (SF-295): 87%
growth at 0.01 µM (SK-MEL-2): 108%
growth at 0.01 µM (MDA-MB-435): 100%
growth at 1 µM (T47D [18]): 91%
growth at 1 µM (MDA-MB-468): 99%
growth at 100 µM (SW-620 [19]): -87%
